How the values were obtained:
[1] = target: GDP-bound KRAS wild-type protein (Homo sapiens, UniProt P01116); assay: Binding to KRAS by surface plasmon resonance (SPR), Single Cycle Kinetics; details: SPR Single Cycle Kinetics, GDP-bound KRAS wild-type protein, 1:1 binding model; read-out: KRAS KD
[2] = target: GDP-bound NRAS wild-type protein (Homo sapiens, UniProt P01111); assay: Binding to NRAS by surface plasmon resonance (SPR), Single Cycle Kinetics; details: SPR KD ratio NRAS/KRAS, class symbols
[3] = target: GDP-bound HRAS wild-type protein (Homo sapiens, UniProt P01112); assay: Binding to HRAS by surface plasmon resonance (SPR), Single Cycle Kinetics; details: SPR KD ratio HRAS/KRAS, class symbols
[4] = system: human lung cancer strain NCI-H441;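 note: cell proliferation inhibition after four days measured by CellTiter-Glo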

Chain of GDP-bound KRAS wild-type protein (P01116 whole entry): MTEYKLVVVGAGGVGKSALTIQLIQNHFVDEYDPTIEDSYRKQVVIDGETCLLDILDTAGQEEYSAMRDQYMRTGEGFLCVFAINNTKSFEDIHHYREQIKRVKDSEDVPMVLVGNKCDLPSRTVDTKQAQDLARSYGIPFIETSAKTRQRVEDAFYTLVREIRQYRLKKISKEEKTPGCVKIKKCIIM
Chain of GDP-bound NRAS wild-type protein (P01111 whole entry): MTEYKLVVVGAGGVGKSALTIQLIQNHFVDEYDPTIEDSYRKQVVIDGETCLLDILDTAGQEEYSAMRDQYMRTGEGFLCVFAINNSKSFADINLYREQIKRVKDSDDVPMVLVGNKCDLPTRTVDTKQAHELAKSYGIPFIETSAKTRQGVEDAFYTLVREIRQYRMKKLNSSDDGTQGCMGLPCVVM
Chain of GDP-bound HRAS wild-type protein (P01112 whole entry): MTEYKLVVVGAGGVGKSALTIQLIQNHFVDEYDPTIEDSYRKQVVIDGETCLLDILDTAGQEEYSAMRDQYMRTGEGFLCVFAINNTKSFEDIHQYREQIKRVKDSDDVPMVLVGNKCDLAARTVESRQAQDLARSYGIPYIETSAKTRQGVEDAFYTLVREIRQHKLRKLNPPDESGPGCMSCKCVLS

Compound	Kd [1] [nM]	NRAS/KRAS (ratio of KD value with respect to GDP-bound NRAS wild-type protein to KD value with respect to KRAS) [2]	HRAS/KRAS (ratio of KD value with respect to GDP-bound HRAS wild-type protein to KD value with respect to KRAS) [3]	IC50 [4] [nM]
CCOC[C@H]1C(=O)N[C@@H]([C@@H](C)CC)C(=O)N(C)CC(=O)N(C)[C@H]2C/C=C\CCN(C2=O)[C@@H](Cc2ccc(C(F)(F)F)cc2)C(=O)N(C)CC(=O)N[C@@H](CCc2ccc(Cl)c(Cl)c2)C(=O)N2C[C@H](OCC)C[C@H]2C(=O)NC2(CC(C)(C)C2)C(=O)N(C)[C@@H](CC(C)(C)C)C(=O)N(C)[C@H](C(=O)N(C)C)CC(=O)N1C [PP2740]	0.17	AA (a compound having 20 or more is denoted as AA)	A (a compound having 10 or more and less than 20 is denoted as A)	24.2
CCO[C@@H]1C[C@H]2C(=O)NC3(CC(C)(C)C3)C(=O)N(C)[C@@H](CC(C)(C)C)C(=O)N(C)[C@H](C(=O)N(C)C)CC(=O)N(C)[C@@H](COC)C(=O)N[C@@H]([C@@H](C)CC)C(=O)N(C3CC3)CC(=O)N(C)[C@H]3C/C=C\CCN(C3=O)[C@@H](Cc3ccc(C(F)(F)F)cc3)C(=O)N(C)CC(=O)N[C@@H](CCc3cc(F)c(C(F)(F)F)c(F)c3)C(=O)N2C1 [PP2744]	0.23	A (a compound having 10 or more and less than 20 is denoted as A)	A (a compound having 10 or more and less than 20 is denoted as A)	10.7
CCC[C@H]1C(=O)N[C@@H]([C@@H](C)CC)C(=O)N(C2CC2)CC(=O)N(C)[C@H]2C/C=C\CCN(C2=O)[C@@H](Cc2ccc(C(F)(F)F)cc2)C(=O)N(C)CC(=O)N[C@@H](CCc2ccc(C(F)(F)F)c(OC)c2)C(=O)N2C[C@H](OCC)C[C@H]2C(=O)NC2(CC(C)(C)C2)C(=O)N(C)[C@@H](CC(C)(C)C)C(=O)N(C)[C@H](C(=O)N(C)C)CC(=O)N1C [PP2746]	0.28	A (a compound having 10 or more and less than 20 is denoted as A)	A (a compound having 10 or more and less than 20 is denoted as A)	10.2
CCO[C@@H]1C[C@H]2C(=O)NC3(CC(C)(C)C3)C(=O)N(C)[C@@H](CC(C)(C)C)C(=O)N(C)[C@H](C(=O)N(C)C)CC(=O)N(C)[C@@H](COC)C(=O)N[C@@H]([C@@H](C)CC)C(=O)N(C3CC3)CC(=O)N(C)[C@H]3C/C=C\CCN(C3=O)[C@@H](Cc3ccc(C(F)(F)F)cc3)C(=O)N(C)CC(=O)N[C@@H](CCc3ccc(C(F)(F)F)c(OC)c3)C(=O)N2C1 [PP2748]	0.2	A (a compound having 10 or more and less than 20 is denoted as A)	A (a compound having 10 or more and less than 20 is denoted as A)	7.1
CCC[C@H]1C(=O)N[C@@H]([C@@H](C)CC)C(=O)N(C2CC2)CC(=O)N(C)[C@H]2C/C=C\CCN(C2=O)[C@@H](Cc2ccc(C(F)(F)F)cc2)C(=O)N(C)CC(=O)N[C@@H](CCc2ccc(Cl)c(Cl)c2)C(=O)N2C[C@H](OCC)C[C@H]2C(=O)NC2(CC(C)(C)C2)C(=O)N(C)[C@@H](CC(C)(C)C)C(=O)N(C)[C@H](C(=O)N(C)C)CC(=O)N1C [PP2749]	0.87	AA (a compound having 20 or more is denoted as AA)	A (a compound having 10 or more and less than 20 is denoted as A)	22.1
CCC[C@H]1C(=O)N[C@@H]([C@@H](C)CC)C(=O)N(C)CC(=O)N(C)[C@H]2C/C=C\CCN(C2=O)[C@@H](Cc2ccc(C)cc2)C(=O)N(C)CC(=O)N[C@@H](CCc2cc(F)c(C(F)(F)F)c(F)c2)C(=O)N2C[C@H](OCC)C[C@H]2C(=O)NC2(CC(C)(C)C2)C(=O)N(C)[C@@H](CC2CCC2)C(=O)N(C)[C@H](C(=O)N(C)C)CC(=O)N1C [PP2751]	0.85	A (a compound having 10 or more and less than 20 is denoted as A)	A (a compound having 10 or more and less than 20 is denoted as A)	39.3
CCCOC[C@H]1C(=O)N[C@@H]([C@@H](C)CC)C(=O)N(C)CC(=O)N(C)[C@H]2C/C=C\CCN(C2=O)[C@@H](Cc2ccc(C)cc2)C(=O)N(C)CC(=O)N[C@@H](CCc2cc(F)c(C(F)(F)F)c(F)c2)C(=O)N2C[C@H](OCC)C[C@H]2C(=O)NC2(CC(C)(C)C2)C(=O)N(C)[C@@H](CC2CCC2)C(=O)N(C)[C@H](C(=O)N(C)C)CC(=O)N1C [PP2752]	1.2	A (a compound having 10 or more and less than 20 is denoted as A)	A (a compound having 10 or more and less than 20 is denoted as A)	70.3
CCC[C@H]1C(=O)N[C@@H]([C@@H](C)CC)C(=O)N(C)CC(=O)N(C)[C@H]2C/C=C\CCN(C2=O)[C@@H](Cc2ccc(C)cc2)C(=O)N(C)CC(=O)N[C@@H](CCc2ccc(C(F)(F)F)c(OC)c2)C(=O)N2C[C@H](OCC)C[C@H]2C(=O)NC2(CC(C)(C)C2)C(=O)N(C)[C@@H](CC2CCC2)C(=O)N(C)[C@H](C(=O)N(C)C)CC(=O)N1C [PP2753]	0.97	A (a compound having 10 or more and less than 20 is denoted as A)	B (a compound having 3 or more and less than 10 is denoted as B)	52
CCC[C@H]1C(=O)N[C@@H]([C@@H](C)CC)C(=O)N(C)CC(=O)N(C)[C@H]2C/C=C\CCN(C2=O)[C@@H](Cc2ccc(C)cc2)C(=O)N(C)CC(=O)N[C@@H](CCc2ccc(Cl)c(Cl)c2)C(=O)N2C[C@H](OCC)C[C@H]2C(=O)NC2(CC(C)(C)C2)C(=O)N(C)[C@@H](CC2CCC2)C(=O)N(C)[C@H](C(=O)N(C)C)CC(=O)N1C [PP2755]	0.56	A (a compound having 10 or more and less than 20 is denoted as A)	A (a compound having 10 or more and less than 20 is denoted as A)	35.7
CCC[C@H]1C(=O)N[C@@H]([C@@H](C)CC)C(=O)N(C2CC2)CC(=O)N(C)[C@H]2C/C=C\CCN(C2=O)[C@@H](Cc2ccc(C)cc2)C(=O)N(C)CC(=O)N[C@@H](CCc2ccc(Cl)c(Cl)c2)C(=O)N2C[C@H](OCC)C[C@H]2C(=O)NC2(CC(C)(C)C2)C(=O)N(C)[C@@H](CC2CCC2)C(=O)N(C)[C@H](C(=O)N(C)C)CC(=O)N1C [PP2761]	2.8	A (a compound having 10 or more and less than 20 is denoted as A)	A (a compound having 10 or more and less than 20 is denoted as A)	68.4
CCOC[C@H]1C(=O)N[C@@H]([C@@H](C)CC)C(=O)N(C2CC2)CC(=O)N(C)[C@H]2C/C=C\CCN(C2=O)[C@@H](Cc2ccc(C)cc2)C(=O)N(C)CC(=O)N[C@@H](CCc2ccc(Cl)c(Cl)c2)C(=O)N2C[C@H](OCC)C[C@H]2C(=O)NC2(CC(C)(C)C2)C(=O)N(C)[C@@H](CC2CCC2)C(=O)N(C)[C@H](C(=O)N(C)C)CC(=O)N1C [PP2762]	2.9	A (a compound having 10 or more and less than 20 is denoted as A)	A (a compound having 10 or more and less than 20 is denoted as A)	122
CCOC[C@H]1C(=O)N[C@@H]([C@@H](C)CC)C(=O)N(C)CC(=O)N(C)[C@H]2C/C=C\CCN(C2=O)[C@@H](Cc2ccc(C(F)(F)F)cc2)C(=O)N(C)CC(=O)N[C@@H](CCc2cc(F)c(C(F)(F)F)c(F)c2)C(=O)N2C[C@H](OCC)C[C@H]2C(=O)NC2(CC(C)(C)C2)C(=O)N(C)[C@@H](CC2CCC2)C(=O)N(C)[C@H](C(=O)N(C)C)CC(=O)N1C [PP2763]	0.86	A (a compound having 10 or more and less than 20 is denoted as A)	A (a compound having 10 or more and less than 20 is denoted as A)	71.9
CCC[C@H]1C(=O)N[C@@H]([C@@H](C)CC)C(=O)N(C)CC(=O)N(C)[C@H]2C/C=C\CCN(C2=O)[C@@H](Cc2ccc(C(F)(F)F)cc2)C(=O)N(C)CC(=O)N[C@@H](CCc2ccc(C(F)(F)F)c(OC)c2)C(=O)N2C[C@H](OCC)C[C@H]2C(=O)NC2(CC(C)(C)C2)C(=O)N(C)[C@@H](CC2CCC2)C(=O)N(C)[C@H](C(=O)N(C)C)CC(=O)N1C [PP2764]	0.85	A (a compound having 10 or more and less than 20 is denoted as A)	A (a compound having 10 or more and less than 20 is denoted as A)	55.8

Source: patent publication US20240158446A1, “CYCLIC COMPOUND HAVING SELECTIVE INHIBITORY ACTION ON KRAS OVER HRAS AND NRAS” (CHUGAI SEIYAKU KABUSHIKI KAISHA, priority 2021, published 2024)
